# Measurements from ChEMBL document CHEMBL4138123, “Design, synthesis and biological evaluation of novel pyrazolochalcones as potential modulators of PI3K/Akt/mTOR pathway and inducers of apoptosis in breast cancer cells” (Eur J Med Chem, 2017).
# Tests used:
# HCC 2998 [1] = test: Cytotoxicity against human HCC2998 cells assessed as cell growth at 100 uM after 48 hrs by sulforhodamine B assay relative to control; type: functional; details: HCC 2998, 48 h, read-out: Activity
# UO-31 = test: Cytotoxicity against human UO31 cells assessed as cell growth at 0.01 uM after 48 hrs by sulforhodamine B assay relative to control; type: functional; details: UO-31, 48 h, read-out: Activity
# SF-268 = test: Cytotoxicity against human SF268 cells assessed as cell growth at 0.1 uM after 48 hrs by sulforhodamine B assay relative to control; type: functional; details: SF-268, 48 h, read-out: Activity
# HOP-62 = test: Cytotoxicity against human HOP62 cells assessed as cell growth at 1 uM after 48 hrs by sulforhodamine B assay relative to control; type: functional; details: HOP-62, 48 h, read-out: Activity
# 786-0 = test: Cytotoxicity against human 786-0 cells assessed as cell growth at 10 uM after 48 hrs by sulforhodamine B assay relative to control; type: functional; details: 786-0, 48 h, read-out: Activity
# K562 = test: Cytotoxicity against human K562 cells assessed as cell growth at 1 uM after 48 hrs by sulforhodamine B assay relative to control; type: functional; details: K562, 48 h, read-out: Activity
# NCI-H23 = test: Cytotoxicity against human NCI-H23 cells assessed as cell growth at 100 uM after 48 hrs by sulforhodamine B assay relative to control; type: functional; details: NCI-H23, 48 h, read-out: Activity
# HCC 2998 [2] = test: Cytotoxicity against human HCC2998 cells assessed as cell growth at 0.01 uM after 48 hrs by sulforhodamine B assay relative to control; type: functional; details: HCC 2998, 48 h, read-out: Activity
# SF-539 = test: Cytotoxicity against human SF539 cells assessed as cell growth at 100 uM after 48 hrs by sulforhodamine B assay relative to control; type: functional; details: SF-539, 48 h, read-out: Activity
# OVCAR-8 = test: Cytotoxicity against human OVCAR8 cells assessed as growth inhibition after 48 hrs by sulforhodamine B assay; type: functional; details: OVCAR-8, 48 h
# T47D = test: Cytotoxicity against human T47D cells assessed as cell growth at 1 uM after 48 hrs by sulforhodamine B assay relative to control; type: functional; details: read-out: Activity
# OVCAR-3 = test: Cytotoxicity against human OVCAR3 cells assessed as cell growth at 0.1 uM after 48 hrs by sulforhodamine B assay relative to control; type: functional; details: OVCAR-3, 48 h, read-out: Activity
# TK-10 = test: Cytotoxicity against human TK10 cells assessed as cell growth at 100 uM after 48 hrs by sulforhodamine B assay relative to control; type: functional; details: TK-10, 48 h, read-out: Activity
# SK-MEL-5 [3] = test: Cytotoxicity against human SK-MEL-5 cells assessed as cell growth at 0.01 uM after 48 hrs by sulforhodamine B assay relative to control; type: functional; details: SK-MEL-5, 48 h, read-out: Activity
# U-251 = test: Cytotoxicity against human U251 cells assessed as cell growth at 1 uM after 48 hrs by sulforhodamine B assay relative to control; type: functional; details: U-251, 48 h, read-out: Activity
# SK-MEL-5 [4] = test: Cytotoxicity against human SK-MEL-5 cells assessed as cell growth at 100 uM after 48 hrs by sulforhodamine B assay relative to control; type: functional; details: SK-MEL-5, 48 h, read-out: Activity
# SN12C = test: Cytotoxicity against human SN12C cells assessed as cell growth at 100 uM after 48 hrs by sulforhodamine B assay relative to control; type: functional; details: read-out: Activity
# NCI-H322M = test: Cytotoxicity against human NCI-H322M cells assessed as cell growth at 10 uM after 48 hrs by sulforhodamine B assay relative to control; type: functional; details: read-out: Activity
# ACHN [5] = test: Cytotoxicity against human ACHN cells assessed as growth inhibition after 48 hrs by sulforhodamine B assay; type: functional
# MDA-MB-468 = test: Cytotoxicity against human MDA-MB-468 cells assessed as growth inhibition after 48 hrs by sulforhodamine B assay; type: functional; details: MDA-MB-468, 48 h
# NCI-H522 = test: Cytotoxicity against human NCI-H522 cells assessed as growth inhibition after 48 hrs by sulforhodamine B assay; type: functional; details: NCI-H522, 48 h
# HCT-116 = test: Cytotoxicity against human HCT116 cells assessed as cell growth at 0.1 uM after 48 hrs by sulforhodamine B assay relative to control; type: functional; details: HCT-116, 48 h, read-out: Activity
# MDA-MB-231 [6] = test: Cytotoxicity against human MDA-MB-231 cells assessed as cell growth at 1 uM after 48 hrs by sulforhodamine B assay relative to control; type: functional; details: MDA-MB-231, 48 h, read-out: Activity
# BT-549 = test: Cytotoxicity against human BT549 cells assessed as cell growth at 1 uM after 48 hrs by sulforhodamine B assay relative to control; type: functional; details: BT-549, 48 h, read-out: Activity
# Malme-3M = test: Cytotoxicity against human MALME-3M cells assessed as growth inhibition after 48 hrs by sulforhodamine B assay; type: functional
# M14 = test: Cytotoxicity against human M14 cells assessed as cell growth at 0.01 uM after 48 hrs by sulforhodamine B assay relative to control; type: functional; details: M14, 48 h, read-out: Activity
# MOLT-4 = test: Cytotoxicity against human MOLT4 cells assessed as cell growth at 0.1 uM after 48 hrs by sulforhodamine B assay relative to control; type: functional; details: MOLT-4, 48 h, read-out: Activity
# MDA-MB-231 [7] = test: Cytotoxicity against human MDA-MB-231 cells assessed as growth inhibition after 48 hrs by MTT assay; type: functional, cell-based; details: MDA-MB-231, 48 h
# UACC-257 [8] = test: Cytotoxicity against human UACC257 cells assessed as cell growth at 100 uM after 48 hrs by sulforhodamine B assay relative to control; type: functional; details: UACC-257, 48 h, read-out: Activity
# UACC-257 [9] = test: Cytotoxicity against human UACC257 cells assessed as cell growth at 10 uM after 48 hrs by sulforhodamine B assay relative to control; type: functional; details: UACC-257, 48 h, read-out: Activity
# MCF7 = test: Cytotoxicity against human MCF7 cells assessed as cell growth at 1 uM after 48 hrs by sulforhodamine B assay relative to control; type: functional; details: MCF7, 48 h, read-out: Activity
# COLO 205 = test: Cytotoxicity against human COLO205 cells assessed as cell growth at 1 uM after 48 hrs by sulforhodamine B assay relative to control; type: functional; details: COLO 205, 48 h, read-out: Activity
# ACHN [10] = test: Cytotoxicity against human ACHN cells assessed as cell growth at 1 uM after 48 hrs by sulforhodamine B assay relative to control; type: functional; details: read-out: Activity
# HCT-15 = test: Cytotoxicity against human HCT15 cells assessed as cell growth at 100 uM after 48 hrs by sulforhodamine B assay relative to control; type: functional; details: HCT-15, 48 h, read-out: Activity
smiles,measurement,setting,value
COc1cc(-c2cc(/C=C/C(=O)c3ccc(Cl)c(Cl)c3)[nH]n2)cc(OC)c1OC,growth at 100 µM,HCC 2998 [1],-50%
same,growth at 0.01 µM,UO-31,85%
same,growth at 0.1 µM,SF-268,92%
same,growth at 1 µM,HOP-62,68%
same,growth at 10 µM,786-0,50%
same,growth at 1 µM,K562,101%
same,growth at 100 µM,NCI-H23,5%
same,growth at 0.01 µM,HCC 2998 [2],96%
same,growth at 100 µM,SF-539,-74%
same,LC50,OVCAR-8,> 100 µM
same,TGI,OVCAR-8,34 µM
same,growth at 1 µM,T47D,62%
same,growth at 0.1 µM,OVCAR-3,105%
same,growth at 100 µM,TK-10,-27%
same,growth at 0.01 µM,SK-MEL-5 [3],98%
same,growth at 1 µM,U-251,87%
same,growth at 100 µM,SK-MEL-5 [4],-30%
same,growth at 100 µM,SN12C,11%
same,growth at 10 µM,NCI-H322M,59%
same,LC50,ACHN [5],> 100 µM
same,TGI,ACHN [5],> 100 µM
same,GI50,MDA-MB-468,1980 nM
same,LC50,MDA-MB-468,> 100 µM
same,TGI,MDA-MB-468,7.22 µM
same,LC50,NCI-H522,6.97 µM
same,TGI,NCI-H522,3040 nM
same,growth at 0.1 µM,HCT-116,100%
same,growth at 1 µM,MDA-MB-231 [6],89%
same,growth at 1 µM,BT-549,92%
same,LC50,Malme-3M,> 100 µM
same,TGI,Malme-3M,> 100 µM
same,growth at 0.01 µM,M14,98%
same,growth at 0.1 µM,MOLT-4,102%
same,IC50,MDA-MB-231 [7],2100 nM
same,growth at 100 µM,UACC-257 [8],-10%
same,growth at 10 µM,UACC-257 [9],66%
same,growth at 1 µM,MCF7,62%
same,growth at 1 µM,COLO 205,54%
same,growth at 1 µM,ACHN [10],101%
COc1cc(C(=O)/C=C/c2cc(-c3cc(OC)c(OC)c(OC)c3)n[nH]2)cc(OC)c1OC,growth at 100 µM,HCC 2998 [1],-89%
same,growth at 0.01 µM,UO-31,90%
same,growth at 0.1 µM,SF-268,99%
same,growth at 1 µM,HOP-62,78%
same,growth at 10 µM,786-0,-77%
same,growth at 1 µM,K562,94%
same,growth at 100 µM,NCI-H23,-62%
same,growth at 0.01 µM,HCC 2998 [2],102%
same,growth at 100 µM,SF-539,-99%
same,growth at 100 µM,HCT-15,-72%
same,LC50,OVCAR-8,6.81 µM
same,TGI,OVCAR-8,3.28 µM
same,growth at 1 µM,T47D,57%
same,growth at 0.1 µM,OVCAR-3,105%
same,growth at 100 µM,TK-10,-99%
same,growth at 0.01 µM,SK-MEL-5 [3],96%
same,growth at 1 µM,U-251,83%
same,growth at 100 µM,SK-MEL-5 [4],-98%
same,growth at 100 µM,SN12C,-97%
same,growth at 10 µM,NCI-H322M,-41%
same,LC50,ACHN [5],5.57 µM
same,TGI,ACHN [5],3.01 µM
same,GI50,MDA-MB-468,1150 nM
same,LC50,MDA-MB-468,5.37 µM
same,TGI,MDA-MB-468,2.48 µM
same,LC50,NCI-H522,4.22 µM
same,TGI,NCI-H522,1700 nM
same,growth at 0.1 µM,HCT-116,104%
same,growth at 1 µM,MDA-MB-231 [6],73%
same,growth at 1 µM,BT-549,85%
same,LC50,Malme-3M,8.99 µM
same,TGI,Malme-3M,4.09 µM
same,growth at 0.01 µM,M14,96%
same,growth at 0.1 µM,MOLT-4,112%
same,IC50,MDA-MB-231 [7],700 nM
same,growth at 100 µM,UACC-257 [8],-99%
same,growth at 10 µM,UACC-257 [9],-93%
same,growth at 1 µM,MCF7,40%
same,growth at 1 µM,COLO 205,98%
same,growth at 1 µM,ACHN [10],89%
COc1ccc(-c2cc(/C=C/C(=O)c3ccc4c(c3)OCO4)[nH]n2)cc1OC,GI50,OVCAR-8,2630 nM
same,GI50,ACHN [5],1590 nM
same,GI50,MDA-MB-468,1090 nM
same,GI50,NCI-H522,1690 nM
same,GI50,Malme-3M,2590 nM
same,IC50,MDA-MB-231 [7],2300 nM
